Test systems include A549; CAKI-1; CCRF-CEM; HCC 2998; HCT-15; HT-29; IGROV-1; KM12; LOX IMVI; NCI-H460; RPMI-8226; RXF 393; SK-MEL-5; SK-OV-3; SR; UO-31; ACHN; COLO 205; TK-10; NCI-H226.
Common to all, as to experiment: NCI-60 cell line screen, 48 h

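Grown in 96-well plates, cells were treated for 48 hours with each compound at five concentrations. Insufficient inhibition: endpoint recorded as highest concentration tested. GI50 is the concentration that inhibits growth by half.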 Calls of active or inactive are those of the source. Rule as the data show it: active = GI50 up to about 1.1 µM and inactive = higher.

For `COC1/C=C/C(C)C(C(C)C(OC)C(C)CCC(=O)C(C)C(C/C=C/N(C)C=O)OC)OC(=O)/C=C/C=C(\C)CC(OC)CC2=CC(=O)O[C@H](C2)C(C)C(OC)CC(OC)/C=C/C(C)C(OC)C1` (stereo not given in full), the GI50 is 0.0288 µM (active) in the experiment on A549; < 0.005 µM (active) with CAKI-1; < 0.005 µM (active) with CCRF-CEM; 0.0133 µM (active) with HCC 2998; less than 0.005 µM with HCT-15; < 0.005 µM (active) in the experiment on HT-29. Further, the GI50 in the experiment on IGROV-1 was 0.0113 µM (active); in the experiment with KM12, 0.0094 µM (active); with LOX IMVI, < 0.005 µM (active); in the experiment on NCI-H460, < 0.005 µM (active); in the experiment on RPMI-8226, < 0.005 µM (active); with RXF 393 it was 0.0148 µM (active). Further, the GI50 is 0.00518 µM (active) with SK-MEL-5, 0.00955 µM (active) with SK-OV-3, < 0.005 µM (active) in the experiment on SR and 0.0125 µM (active) in the experiment with UO-31.
As for `FC(F)(F)C(C1=NC(C(F)(F)F)(C(F)(F)F)N=C(N2CCOCC2)O1)C(F)(F)F`, the GI50 is 18.5 µM (inactive) in the experiment with A549; 17.4 µM (inactive) in the experiment with ACHN; 23.2 µM (inactive) with CAKI-1; 4.71 µM (inactive) in the experiment with CCRF-CEM; 14.3 µM (inactive) with COLO 205; 41.5 µM (inactive) with HCC 2998. Moreover, the GI50 in the experiment with HCT-15 was 26.1 µM; in the experiment on HT-29, 18.7 µM (inactive); in the experiment with IGROV-1, 19.6 µM (inactive); in the experiment with KM12, 39.3 µM (inactive); in the experiment with LOX IMVI, 17.8 µM (inactive); with NCI-H460, 29 µM (inactive). For the same compound, the GI50 in the experiment on RPMI-8226 is 20.8 µM (inactive); with RXF 393, 15.7 µM (inactive); in the experiment on SK-MEL-5, 11.9 µM (inactive); in the experiment on SK-OV-3, 31.3 µM (inactive); in the experiment on SR it was 18.8 µM (inactive); in the experiment with TK-10, 28.7 µM (inactive). The GI50 with UO-31 is 25.4 µM (inactive).
Consider `COc1ccc(NC(=O)CC/C(CC(=O)c2ccccc2Cl)=N\Nc2nnc(C)n2N)cc1`, for which the GI50 in the experiment on A549, in the experiment on ACHN, in the experiment with CAKI-1, in the experiment on CCRF-CEM, with COLO 205 and with HCC 2998 was > 100 µM (inactive) throughout. Further, the GI50 with HCT-15 was more than 100 µM; with HT-29, > 100 µM (inactive); with IGROV-1, > 100 µM (inactive); in the experiment with KM12 it was > 100 µM (inactive); in the experiment with LOX IMVI it was > 100 µM (inactive); in the experiment on NCI-H226, > 100 µM (inactive). Further, the GI50 with NCI-H460, with RXF 393, in the experiment on SK-OV-3, in the experiment on SR, with TK-10 and with UO-31 was > 100 µM (inactive) in each case.
Consider `N#CC1(CCCI)CCCC1`, for which the GI50 was 20.6 µM (inactive) with A549; 21.4 µM (inactive) in the experiment with ACHN; 11.5 µM (inactive) in the experiment on CCRF-CEM; 27.8 µM (inactive) in the experiment on COLO 205; 33.7 µM (inactive) in the experiment with HCC 2998; 14.5 µM in the experiment on HCT-15. For the same compound, the GI50 was 15.2 µM (inactive) in the experiment on HT-29; > 100 µM (inactive) with IGROV-1; 17.5 µM (inactive) in the experiment on KM12; 3.76 µM (inactive) in the experiment on LOX IMVI; 2.92 µM (inactive) with NCI-H460; 11 µM (inactive) in the experiment with RXF 393. Moreover, the GI50 was 12.9 µM (inactive) in the experiment on SK-MEL-5; 64.4 µM (inactive) in the experiment on SK-OV-3; 15.4 µM (inactive) in the experiment on SR; 41.9 µM (inactive) in the experiment with TK-10; 27.9 µM (inactive) with UO-31.
With `C=C1CC(C)(COc2ccc3c(C)cc(=O)oc3c2)OC1=O` (stereo not given), the GI50 in the experiment on A549 was 8.79 µM (inactive); in the experiment on ACHN, 2.08 µM (inactive); with CAKI-1, 1.3 µM (inactive); in the experiment on CCRF-CEM it was 0.229 µM (active); with COLO 205, 0.951 µM (active); with HCC 2998 it was 3.5 µM (inactive). Besides, the GI50 was 1.47 µM with HCT-15; 1.03 µM (active) in the experiment on HT-29; 2.47 µM (inactive) in the experiment on IGROV-1; 3.66 µM (inactive) in the experiment on KM12; 1.59 µM (inactive) in the experiment on LOX IMVI; 8.69 µM (inactive) in the experiment with NCI-H226. For the same compound, the GI50 was 5.3 µM (inactive) in the experiment on NCI-H460; 0.414 µM (active) in the experiment with RPMI-8226; 1.31 µM (inactive) in the experiment with SK-MEL-5; 3.73 µM (inactive) in the experiment on SK-OV-3; 0.918 µM (active) with SR; 1.26 µM (inactive) in the experiment on TK-10. For the same compound, the GI50 in the experiment on UO-31 is 6.7 µM (inactive).
Regarding `COc1ccc(NCC(=O)Nn2c(-c3ccccc3)nc3ccccc3c2=O)cc1`, the GI50 in the experiment on A549 is 53.7 µM (inactive); in the experiment on ACHN it was 38.4 µM (inactive); in the experiment with CCRF-CEM it was 24.2 µM (inactive); with COLO 205 it was 37.2 µM (inactive); in the experiment on HCC 2998 it was 77.6 µM (inactive); in the experiment on HCT-15 it was 54 µM. Also, the GI50 in the experiment with HT-29 is 32.4 µM (inactive); with IGROV-1, 27 µM (inactive); with KM12 it was 70.8 µM (inactive); in the experiment on LOX IMVI it was 19.6 µM (inactive); with NCI-H226, > 100 µM (inactive); in the experiment on NCI-H460, 51.1 µM (inactive). Further, the GI50 was 24.2 µM (inactive) with RPMI-8226; > 10 µM (inactive) in the experiment with RXF 393; 14.8 µM (inactive) with SK-MEL-5; > 100 µM (inactive) in the experiment on SK-OV-3; 35.8 µM (inactive) with SR; > 100 µM (inactive) with TK-10. For the same compound, the GI50 with UO-31 was > 100 µM (inactive).
With `CCN(CC)CCCC(C)Nc1cc(-c2ccccc2)nc2cc(OC)ccc12` (stereo not given), the GI50 in the experiment on ACHN was 6.53 µM (inactive); with CCRF-CEM, 1.3 µM (inactive); with COLO 205, 2.91 µM (inactive); in the experiment with HCC 2998, 1.15 µM (inactive); with HT-29, 1.94 µM (inactive); in the experiment with IGROV-1, 13.2 µM (inactive). The GI50 with KM12 is 5.33 µM (inactive); in the experiment with NCI-H460, 2.92 µM (inactive); in the experiment on RPMI-8226 it was 2.07 µM (inactive); with SK-OV-3, 16.3 µM (inactive); in the experiment with SR it was 2.71 µM (inactive); with UO-31, 2.54 µM (inactive).
Take `N#Cc1c(-c2ccccc2)cn(C(=O)c2ccccc2)c1N`: the GI50 is > 100 µM (inactive) with A549; > 100 µM (inactive) in the experiment with ACHN; > 100 µM (inactive) with CCRF-CEM; > 100 µM (inactive) in the experiment on COLO 205; < 0.01 µM (active) in the experiment on HCC 2998; more than 100 µM in the experiment with HCT-15. The GI50 in the experiment with HT-29, in the experiment with IGROV-1, in the experiment with KM12, with LOX IMVI, in the experiment on NCI-H226 and in the experiment with RPMI-8226 was > 100 µM (inactive) throughout. Besides, the GI50 in the experiment with SK-MEL-5, in the experiment on SK-OV-3, in the experiment with SR, with TK-10 and with UO-31 was > 100 µM (inactive) throughout.
`CC(C)O/C=C1\C(=O)C2(SCCS2)[C@H]2CCCC[C@@H]12`: the GI50 is 37.9 µM (inactive) in the experiment on A549; 39.3 µM (inactive) in the experiment on ACHN; 29.2 µM (inactive) with CAKI-1; 25.5 µM (inactive) in the experiment with CCRF-CEM; 18.5 µM (inactive) in the experiment on COLO 205; 66.4 µM (inactive) with HCC 2998. The GI50 was 33.9 µM in the experiment on HCT-15; 49.7 µM (inactive) with IGROV-1; 35.6 µM (inactive) in the experiment on KM12; 84.1 µM (inactive) with NCI-H226; 33.7 µM (inactive) in the experiment on NCI-H460; 25.4 µM (inactive) in the experiment with RPMI-8226. Moreover, the GI50 was 21.8 µM (inactive) in the experiment on RXF 393; 25.2 µM (inactive) in the experiment on SK-MEL-5; 59.7 µM (inactive) with SK-OV-3; 48.9 µM (inactive) in the experiment with SR; 43 µM (inactive) in the experiment on TK-10; 41.3 µM (inactive) in the experiment with UO-31.
For the compound `OCC1OC(n2ccc3cnccc32)CC1O` (stereo not given), the GI50 in the experiment on A549, in the experiment with ACHN, with CAKI-1, in the experiment with CCRF-CEM, in the experiment on COLO 205 and in the experiment with HCC 2998 was > 100 µM (inactive) each time. Besides, the GI50 in the experiment with HCT-15 was more than 100 µM; in the experiment with HT-29, > 100 µM (inactive); in the experiment on IGROV-1 it was > 100 µM (inactive); in the experiment on KM12 it was > 100 µM (inactive); with LOX IMVI it was > 100 µM (inactive); with NCI-H226, > 100 µM (inactive). Besides, the GI50 in the experiment with NCI-H460, in the experiment on RPMI-8226, with SK-MEL-5, in the experiment on SK-OV-3, in the experiment with SR and in the experiment on TK-10 was > 100 µM (inactive) in each case. In addition, the GI50 in the experiment on UO-31 is > 100 µM (inactive).
As to `O=C(NC(COC(=O)C(Cc1ccccc1)NC(=O)c1ccccc1)Cc1ccccc1)c1ccccc1` (stereo not given), the GI50 in the experiment with A549 is > 50 µM (inactive); in the experiment on ACHN, > 50 µM (inactive); in the experiment with HCC 2998 it was > 50 µM (inactive); in the experiment on HCT-15, more than 50 µM; with HT-29, > 50 µM (inactive); in the experiment with IGROV-1, > 50 µM (inactive). The GI50 with KM12, in the experiment with NCI-H460, in the experiment on RPMI-8226, with SK-OV-3, in the experiment with SR and in the experiment with TK-10 was > 50 µM (inactive) in each case. In the experiment with UO-31, the GI50 was > 50 µM (inactive).
For `O=C(c1cccs1)N(C(=S)OC12CC3CC(CC(C3)C1)C2)c1ccccc1`, the GI50 is 32.8 µM (inactive) in the experiment with A549; 33 µM (inactive) in the experiment with ACHN; 28.3 µM (inactive) in the experiment on CAKI-1; 15.3 µM (inactive) in the experiment on CCRF-CEM; 17.7 µM (inactive) with COLO 205; 32.6 µM (inactive) in the experiment with HCC 2998. The GI50 was 29.8 µM with HCT-15; 31.8 µM (inactive) with HT-29; 31.9 µM (inactive) in the experiment with KM12; 22.5 µM (inactive) in the experiment on LOX IMVI; 33.3 µM (inactive) in the experiment with NCI-H226; 33.3 µM (inactive) in the experiment with NCI-H460. For the same compound, the GI50 was 62.2 µM (inactive) in the experiment with RXF 393; 22.1 µM (inactive) in the experiment with SK-MEL-5; 28.4 µM (inactive) in the experiment with SK-OV-3; 25.2 µM (inactive) in the experiment on SR; 44 µM (inactive) with TK-10; 18.7 µM (inactive) in the experiment with UO-31.

The values above are taken from ChEMBL document CHEMBL1201862, “PubChem BioAssay data set” (2004).
